The record followed here is paper PMC4669414 (Scientific Reports, 2015).

As usually defined, the IC50 is the concentration that gives 50% inhibition.

The subject of data set [1] is PC9/G cells. Put plainly: MTT cell growth inhibition assay in PC9/G cells. As to conditions: 72 h; for effect on cell viability when combined with Gef + Res treatment: 3-MA 5 mM or DEVD 10 nM with Gef 1 μM + Res 40 μM. The procedure:
Cell viability was measured by MTT assay. Data are shown as means ± SD of three independent experiments. […] Then, cell viability, apoptosis, autophagy and senescence were detected as described in the Materials and methods. […] Res: Resveratrol; 3-MA: 3-methyladenine; DEVD: Ac-DEVD-CHO. The antiproliferative effects of the treatments were evaluated using the MTT assay. Cells were seeded at a density of 4 × 10^3 cells/well in 96-well plates. […] Then, MTT assays were performed as described previously. […] The different drug doses were combined using constant ratios of the IC50 values calculated from the previous cytotoxicity tests. […] The effects of different drug combinations were evaluated using the CompuSyn software (Biosoft, Ferguson, MO, USA) based on the median effect model of Chou and Talay[43].

Data set [2] concerns PC9/G cells. Put plainly: Annexin V-FITC/PI apoptosis assay by flow cytometry. The data set is classed as cell-based, human. As to conditions: Gef 1 μM alone or combined with Res 40 μM, 72 h. As to the method:
(§1) Figure 4 Res enhanced Gef-induced apoptosis, autophagy, G2/M phase cell cycle arrest, and senescence in PC9/G cells. […] (A) Morphological changes in PC9/G cells including nuclei condensation and fragmentation (arrow) were observed by DAPI staining under a fluorescence microscope. (B) Annexin V-FITC/PI staining assay of PC9/G cells was analysed by flow cytometry. (C) Autophagy was detected by MDC staining, and (D) fluorescence intensity was detected by flow cytometry. (E) Cells were stained with PI, and then the DNA content was analysed by flow cytometry. Sub-G1, G1, S and G2/M indicate different cell cycle phases. (F) Cells were stained for SA-β-Gal activity. The percentage of senescent cells in PC9/G cells was measured. Magnification: 200× .
For apoptosis analysis, cells were washed twice with 1× binding buffer then labelled with Annexin V and propidium iodide (PI) following the manufacturer’s instructions. The Apoptosis Analysis Kit was ordered from Tianjin Sungene Biotech (Tianjing, China). For cell cycle analysis, cells were washed twice with ice-cold PBS and fixed with 70% ethanol at −20 °C overnight. […] The analysis of the samples was performed by flow cytometry (Becton-Dickinson, San Jose, CA, USA), and the acquired data were analysed with the CellQuest software (BD Biosciences).
For orientation: A flow cytometer gives signals particle by particle.

The subject of data set [3] is PC9/G cells. Briefly: SA-β-gal senescence assay. The data set is classed as cell-based, human. As to conditions: Gef 1 μM alone or combined with Res 40 μM, 72 h. The procedure:
as §1
Cell senescence was measured following the manufacturer’s protocol of the SA-β-gal assay kit. According to the protocol, cells were fixed with 2% paraformaldehyde for 15 min at room temperature and then incubated with fresh SA-β-gal stain solution in the dark at 37 °C overnight. SA-β-gal-positive cells were quantified by counting stained and unstained cells, and the result is presented as the ratio of SA-β-gal-positive cells over the total cells counted.

The subject of the next data set is HCC827/G cells. Put plainly: MTT cell growth inhibition assay in HCC827/G cells. Type of data set: cell-based. As to conditions: Homo sapiens. As to the method: (§2) The antiproliferative effects of the treatments were evaluated using the MTT assay. Cells were seeded at a density of 4 × 10^3 cells/well in 96-well plates. […] Then, MTT assays were performed as described previously.
(§3) are shown as means ± SD of three independent experiments.

For another data set, the system named is HCC827 cells. Briefly: MTT cell growth inhibition assay in HCC827 cells. The data set is classed as cell-based. As to conditions: Homo sapiens. The procedure: as §2, §3
Another data set relates to H1299 cells. Briefly: MTT cell growth inhibition assay in H1299 cells. The data set is classed as cell-based. As to conditions: Homo sapiens, NCI-H1299. As to the method: as §2, §3
Another data set concerns H1975 cells. Put plainly: MTT cell growth inhibition assay in H1975 cells. Type of data set: cell-based. As to conditions: Homo sapiens, NCI-H1975. As to the method:
as §2, §3

The next data set has as its system A549 cells. Briefly: MTT cell growth inhibition assay in A549 cells. Type of data set: cell-based. As to conditions: Homo sapiens. As to the method: as §2, §3
For a further data set, the system named is PC9 cells. Briefly: MTT cell growth inhibition assay in PC9 cells. Type of data set: cell-based. As to conditions: Homo sapiens, PC-9, single drug, 72 h. As to the method: Then, MTT assays were performed as described previously.

In the case of `Cn1cnc(N)c2ncnc1-2` [3-MA, 3-methyladenine], the “effect on cell viability when combined with Gef + Res treatment” value with PC9/G cells [1] (PC9/G cells) is reported as “significantly potentiated the reduction of cell viability”.

Take `COc1cc2ncnc(Nc3ccc(F)c(Cl)c3)c2cc1OCCCN1CCOCC1` [Gef, Gefitinib]: the apoptosis rate in the data set on PC9/G cells [2] stood at 9.77 ± 2.96. Also, in the data set on PC9/G cells [3], the “proportion of SA-β-gal-positive cells” value came to 11.4 ± 1.6%.

In the case of `Oc1ccc(/C=C/c2cc(O)cc(O)c2)cc1` [Res, Resveratrol], the half-inhibitory concentration (IC50) in the data set on HCC827/G cells amounted to 42.9 ± 3.54 µM; in the data set with HCC827 cells it was 73.4 ± 4.32 µM; in the data set with PC9/G cells [1] (Homo sapiens), 33.9 ± 1.6 µM; in the data set on H1299 cells, 88.8 ± 1.62 µM; in the data set on H1975 cells, 74.6 ± 2.03 µM; with A549 cells it was 72.4 ± 2.76 µM. This compound had an IC50 in the data set on PC9 cells of 82.5 ± 10 µM.

As for Ac-DEVD-CHO, in the data set on PC9/G cells [1] (PC9/G cells, 3-MA 5 mM or DEVD 10 nM alone), the “toxic effect on cell viability, alone” value was “no toxic effects”. The “effect on cell viability when combined with Gef + Res treatment” value in the data set on PC9/G cells [1] (PC9/G cells) is recorded as “no effect”.
